Reference: PubChem BioAssay (NCI)
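Where inhibition never reached the appropriate level, the endpoint shown equals the highest concentration tested. Otherwise, values were interpolated linearly from a five-concentration, 48-hour dose response in 96-well plates. TGI denotes the concentration required for complete inhibition of growth.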

Key:
Test in all cases: NCI-60 cell line screen, 48 h
OVCAR-4 ovarian = tested on: OVCAR-4 ovarian
DMS 114 small cell lung = tested on: DMS 114 small cell lung
NCI-H522 lung = tested on: NCI-H522 lung
MALME-3M melanoma = tested on: MALME-3M melanoma
HT29 colon = tested on: HT29 colon
U251 CNS = tested on: U251 CNS
A549 NSCLC = tested on: A549 NSCLC
SNB-75 CNS = tested on: SNB-75 CNS
DMS 273 small cell lung = tested on: DMS 273 small cell lung
OVCAR-8 ovarian = tested on: OVCAR-8 ovarian
NCI-H460 lung = tested on: NCI-H460 lung
OVCAR-3 ovarian = tested on: OVCAR-3 ovarian
A498 renal = tested on: A498 renal
HCT-15 colon = tested on: HCT-15 colon
SN12C renal = tested on: SN12C renal
HCC-2998 colon = tested on: HCC-2998 colon
UACC-257 melanoma = tested on: UACC-257 melanoma
M19-MEL melanoma = tested on: M19-MEL melanoma
MOLT-4 leukemia = tested on: MOLT-4 leukemia
786-0 renal = tested on: 786-0 renal
TK-10 renal = tested on: TK-10 renal
EKVX NSCLC = tested on: EKVX NSCLC
CCRF-CEM leukemia = tested on: CCRF-CEM leukemia
DLD-1 colon = tested on: DLD-1 colon
ACHN renal = tested on: ACHN renal
SK-MEL-5 melanoma = tested on: SK-MEL-5 melanoma
COLO 205 colon = tested on: COLO 205 colon
UACC-62 melanoma = tested on: UACC-62 melanoma
SF-539 CNS = tested on: SF-539 CNS
RXF-631 renal = tested on: RXF-631 renal
SK-MEL-2 melanoma = tested on: SK-MEL-2 melanoma
NCI-H23 lung = tested on: NCI-H23 lung
XF 498 CNS = tested on: XF 498 CNS
HOP-62 NSCLC = tested on: HOP-62 NSCLC
SF-295 CNS = tested on: SF-295 CNS
LXFL 529 NSCLC = tested on: LXFL 529 NSCLC
HCT-116 colon = tested on: HCT-116 colon
SF-268 CNS = tested on: SF-268 CNS
M14 melanoma = tested on: M14 melanoma
RPMI-8226 leukemia = tested on: RPMI-8226 leukemia
SK-MEL-28 melanoma = tested on: SK-MEL-28 melanoma
KM20L2 colon = tested on: KM20L2 colon
LOX IMVI melanoma = tested on: LOX IMVI melanoma
SW-620 colon = tested on: SW-620 colon
KM12 colon = tested on: KM12 colon
UO-31 renal = tested on: UO-31 renal
OVCAR-5 ovarian = tested on: OVCAR-5 ovarian
SK-OV-3 ovarian = tested on: SK-OV-3 ovarian
HOP-92 NSCLC = tested on: HOP-92 NSCLC
SNB-78 CNS = tested on: SNB-78 CNS
SNB-19 CNS = tested on: SNB-19 CNS
IGROV1 ovarian = tested on: IGROV1 ovarian
RXF 393 renal = tested on: RXF 393 renal
K-562 leukemia = tested on: K-562 leukemia
NCI-H226 lung = tested on: NCI-H226 lung
HL-60(TB) leukemia = tested on: HL-60(TB) leukemia
SR leukemia = tested on: SR leukemia
CAKI-1 renal = tested on: CAKI-1 renal
HOP-18 NSCLC = tested on: HOP-18 NSCLC

**Q.** What does the source list for `Cc1ccc(-c2cc(=O)c3cc(C)c(C)c(C(=O)O)c3o2)cc1`?
**A.** TGI (OVCAR-4 ovarian): > 100 µM; TGI (DMS 114 small cell lung): > 100 µM; TGI (NCI-H522 lung): 54.5 µM; TGI (MALME-3M melanoma): > 100 µM; TGI (HT29 colon): > 100 µM; TGI (U251 CNS): > 100 µM; TGI (A549 NSCLC): > 100 µM; TGI (SNB-75 CNS): > 100 µM; TGI (DMS 273 small cell lung): > 100 µM; TGI (OVCAR-8 ovarian): > 100 µM; TGI (NCI-H460 lung): > 100 µM; TGI (OVCAR-3 ovarian): > 100 µM; TGI (A498 renal): > 100 µM; TGI (HCT-15 colon): > 100 µM; TGI (SN12C renal): > 100 µM; TGI (HCC-2998 colon): > 100 µM; TGI (UACC-257 melanoma): > 100 µM; TGI (M19-MEL melanoma): > 100 µM; TGI (MOLT-4 leukemia): > 100 µM; TGI (786-0 renal): > 100 µM; TGI (TK-10 renal): > 100 µM; TGI (EKVX NSCLC): > 100 µM; TGI (CCRF-CEM leukemia): > 100 µM; TGI (DLD-1 colon): > 100 µM; TGI (ACHN renal): > 100 µM; TGI (SK-MEL-5 melanoma): > 100 µM; TGI (COLO 205 colon): > 100 µM; TGI (UACC-62 melanoma): > 100 µM; TGI (SF-539 CNS): 75 µM; TGI (RXF-631 renal): > 100 µM; TGI (SK-MEL-2 melanoma): > 100 µM; TGI (NCI-H23 lung): > 100 µM; TGI (XF 498 CNS): > 100 µM; TGI (HOP-62 NSCLC): > 100 µM; TGI (SF-295 CNS): > 100 µM; TGI (LXFL 529 NSCLC): > 100 µM; TGI (HCT-116 colon): > 100 µM; TGI (SF-268 CNS): > 100 µM; TGI (M14 melanoma): > 100 µM; TGI (RPMI-8226 leukemia): > 100 µM; TGI (SK-MEL-28 melanoma): > 100 µM; TGI (KM20L2 colon): > 100 µM; TGI (LOX IMVI melanoma): > 100 µM; TGI (SW-620 colon): > 100 µM; TGI (KM12 colon): > 100 µM; TGI (UO-31 renal): > 100 µM; TGI (OVCAR-5 ovarian): > 100 µM; TGI (SK-OV-3 ovarian): > 100 µM; TGI (HOP-92 NSCLC): > 100 µM; TGI (SNB-78 CNS): > 100 µM; TGI (SNB-19 CNS): > 100 µM; TGI (IGROV1 ovarian): > 100 µM

**Q.** What does the source list for `CCCCCCCCC(O)C#CC(N)=O` (centres undefined)?
**A.** TGI (OVCAR-4 ovarian): 12 µM; TGI (DMS 114 small cell lung): 17.9 µM; TGI (MALME-3M melanoma): 31.8 µM; TGI (HT29 colon): 24.5 µM; TGI (U251 CNS): 20.9 µM; TGI (A549 NSCLC): 36.2 µM; TGI (SNB-75 CNS): 17.5 µM; TGI (DMS 273 small cell lung): 20.3 µM; TGI (OVCAR-8 ovarian): 21.4 µM; TGI (NCI-H460 lung): 22 µM; TGI (OVCAR-3 ovarian): 20.5 µM; TGI (A498 renal): 31 µM; TGI (HCT-15 colon): 30.9 µM; TGI (SN12C renal): 23.8 µM; TGI (RXF 393 renal): 29.2 µM; TGI (HCC-2998 colon): 22.4 µM; TGI (K-562 leukemia): 75.4 µM; TGI (NCI-H226 lung): 25.6 µM; TGI (HL-60(TB) leukemia): 40.3 µM; TGI (UACC-257 melanoma): 26.9 µM; TGI (M19-MEL melanoma): 24.4 µM; TGI (MOLT-4 leukemia): 66.1 µM; TGI (786-0 renal): 25.3 µM; TGI (TK-10 renal): 30.8 µM; TGI (EKVX NSCLC): 23.6 µM; TGI (CCRF-CEM leukemia): 72.5 µM; TGI (DLD-1 colon): 21.8 µM; TGI (ACHN renal): 31 µM; TGI (SK-MEL-5 melanoma): 24.3 µM; TGI (SR leukemia): 52.9 µM; TGI (CAKI-1 renal): 32.3 µM; TGI (UACC-62 melanoma): 19.9 µM; TGI (SF-539 CNS): 26.1 µM; TGI (HOP-18 NSCLC): 26 µM; TGI (RXF-631 renal): 29.8 µM; TGI (SK-MEL-2 melanoma): 26.3 µM; TGI (NCI-H23 lung): 35.6 µM; TGI (XF 498 CNS): 30.8 µM; TGI (SF-295 CNS): > 100 µM; TGI (LXFL 529 NSCLC): 23.3 µM; TGI (HCT-116 colon): 16.6 µM; TGI (M14 melanoma): 25.6 µM; TGI (RPMI-8226 leukemia): 41.1 µM; TGI (SK-MEL-28 melanoma): 31.8 µM; TGI (KM20L2 colon): 35.1 µM; TGI (LOX IMVI melanoma): 24 µM; TGI (SW-620 colon): 37.2 µM; TGI (UO-31 renal): 21.6 µM; TGI (OVCAR-5 ovarian): 43.9 µM; TGI (HOP-92 NSCLC): 24.3 µM; TGI (SNB-78 CNS): 57.5 µM; TGI (SNB-19 CNS): 26.3 µM
